Assay: Pharmacokinetics assay in SD rats (LC/MS/MS plasma concentration)
Assay type: in vivo
Details: 15 mg/kg; for Apparent Distribution Volume Vz/F / Clearance CL/F: intravenous injection; for Vd/F / CL/F: both sexes, rat, plasma, oral gavage; for Vd/F: read-out: Apparent Distribution Volume Vz/F; for CL/F: read-out: Clearance CL/F (converted)
Protocol: 24 Healthy adult SD rats, male and female in half, were purchased from SINO-BRITSH SIPPR/BK LAB. ANIMAL LTD., CO, Certificate No.: SCXK (Shanghai) 2003-0002.
The intragastrical administration group: the right amount of tested compounds were weighed and dissolved in 0.5 mL of DMSO, diluted with physiological saline to 10 mL and prepared to 1.5 mg/mL.
The intravenous injection administration group: the right amount of tested compounds were weighed and added into […].
After an overnight fast, 24 healthy adult SD rats, male and female in half, were administered intragastrically at a dose of 15.0 mg/kg and an administration volume of 10 mL/kg.
(§1) The intragastrical administration group: blood samples (0.2 mL) were taken from orbital sinus at pre administration and at 0.25 hour, 0.5 hour, 1.0 hour, 1.5 hours, 2.0 hours, 3.0 hours, 4.0 hours, 6.0 hours, 7.0 hours, 9.0 hours, 12.0 hours and 24.0 hours post administration, stored in heparinized tubes and centrifuged for 20 minutes at 3,500 rpm to separate plasma. The plasma samples were stored at −20° C. The rats were fed at 2 hours after administration.
as §1, with “intravenous injection” for “intragastrical”, “2 minutes, 15 minutes,” for “0.25 hour,”, “hour,” for “hour, 1.5 hours,”, “8.0” for “7.0 hours, 9.0”, “C.” for “C. The rats were fed at 2 hours after administration.”
20 μL of rat blank plasmas taken at various time points after administration were added with 50 μL of internal standard solution and […] of methanol and mixed for 3 minutes by a vortexer. The mixture was centrifuged for 10 minutes at 13,500 rpm. 20 μL of the supernatant was analyzed by LC-MS/MS. The main pharmacokinetic parameters were calculated by software DAS 2.0.

| Structure (SMILES) | Apparent Distribution Volume Vz/F | Clearance CL/F | Vd/F | CL/F |
| --- | --- | --- | --- | --- |
| CCNC(=O)c1nc(C(F)(F)F)n2c1CN(C(=O)c1cc(Cc3n[nH]c(=O)c4ccccc34)ccc1F)CC2 [Example 7, N-ethyl-7-[2-fluoro-5-[(4-oxo-3H-phthalazin-1-yl)methyl]benzoyl]-3-(trifluoromethyl)-6,8-dihydro-5H-imidazo[1,5-a]pyrazine-1-carboxamide] | 0.64 ± 0.19 L/kg | 8.67 ± 4.83 mL/min/kg | 103 ± 134 L/kg | 257 mL/min/kg |
| CNC(=O)c1nc(C(F)(F)F)n2c1CN(C(=O)c1cc(Cc3n[nH]c(=O)c4ccccc34)ccc1F)CC2 [Example 13, 7-[2-fluoro-5-[(4-oxo-3H-phthalazin-1-yl)methyl]benzoyl]-N-methyl-3-(trifluoromethyl)-6,8-dihydro-5H-imidazo[1,5-a]pyrazine-1-carboxamide] | 4.70 ± 2.17 L/kg | 12 ± 7.5 mL/min/kg | 49.9 ± 52.9 L/kg | 74.5 mL/min/kg |
| O=C(c1cc(Cc2n[nH]c(=O)c3ccccc23)ccc1F)N1CCn2nc(C(F)(F)F)nc2C1 [Example 19, 4-[[4-fluoro-3-[2-(trifluoromethyl)-6,8-dihydro-5H-[1,2,4]triazolo[1,5-a]pyrazine-7-carbonyl]phenyl]methyl]-2H-phthalazin-1-one] |  |  | 7.97 ± 5.38 L/kg | 57.5 mL/min/kg |

Source: patent US9566277B2, “Methods of using phthalazinone ketone derivatives” (Jiangsu Hansoh Pharmaceutical Co., Ltd., priority 2010, dated 2017)
